# Data: ChEMBL document CHEMBL4393660, “New pyrazole derivatives: Synthesis, anti-inflammatory activity, cycloxygenase inhibition assay and evaluation of mPGES” (Eur J Med Chem, 2019)
# pIC50: −log10 of the molar value. Calls of active or inactive are those of the source. The calls are words filed in the database; no cut-off is given here.
# Experiments:
# [1] = molecular target: Prostaglandin G/H synthase 1 (Homo sapiens, UniProt P23219); test: (§1) Inhibition of human recombinant COX1 assessed as reduction in PGF2alpha formation using arachidonic acid as substrate preincubated with enzyme for 10 mins followed by substrate addition for 30 secs and measured after 1 hr by microplate reader based enzyme immunoassay
# Prostaglandin G/H synthase 1, sequence (P23219 whole entry): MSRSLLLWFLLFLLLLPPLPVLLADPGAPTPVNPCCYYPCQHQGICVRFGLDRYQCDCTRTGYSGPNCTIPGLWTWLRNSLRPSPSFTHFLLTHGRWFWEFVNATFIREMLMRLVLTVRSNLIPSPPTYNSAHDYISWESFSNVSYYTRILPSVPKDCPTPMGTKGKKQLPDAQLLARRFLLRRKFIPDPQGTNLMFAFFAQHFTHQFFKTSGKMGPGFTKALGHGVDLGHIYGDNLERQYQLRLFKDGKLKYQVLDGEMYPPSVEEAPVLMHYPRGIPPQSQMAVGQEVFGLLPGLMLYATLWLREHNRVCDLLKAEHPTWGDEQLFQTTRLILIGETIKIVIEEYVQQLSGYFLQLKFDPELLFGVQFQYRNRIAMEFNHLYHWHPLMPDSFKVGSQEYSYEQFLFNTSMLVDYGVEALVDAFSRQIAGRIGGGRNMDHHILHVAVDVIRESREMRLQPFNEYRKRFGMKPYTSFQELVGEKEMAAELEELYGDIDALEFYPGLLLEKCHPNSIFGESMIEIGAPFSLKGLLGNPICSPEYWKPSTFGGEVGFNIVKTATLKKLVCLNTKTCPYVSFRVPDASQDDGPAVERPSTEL
# Homo sapiens = species: Homo sapiens; test: as §1, with “Selectivity index, ratio” for “Inhibition”, “of IC50 for” for “of”, “COX1 to IC50 for human recombinant COX-2” for “COX1”
# [2] = molecular target: T1, Prostaglandin G/H synthase 2 (Homo sapiens, UniProt P35354); test: Inhibition of human recombinant COX-2 assessed as reduction in PGF2alpha formation using arachidonic acid as substrate preincubated with enzyme for 10 mins followed by substrate addition for 30 secs and measured after 1 hr by microplate reader based enzyme immunoassay
# T1 sequence (P35354 whole entry): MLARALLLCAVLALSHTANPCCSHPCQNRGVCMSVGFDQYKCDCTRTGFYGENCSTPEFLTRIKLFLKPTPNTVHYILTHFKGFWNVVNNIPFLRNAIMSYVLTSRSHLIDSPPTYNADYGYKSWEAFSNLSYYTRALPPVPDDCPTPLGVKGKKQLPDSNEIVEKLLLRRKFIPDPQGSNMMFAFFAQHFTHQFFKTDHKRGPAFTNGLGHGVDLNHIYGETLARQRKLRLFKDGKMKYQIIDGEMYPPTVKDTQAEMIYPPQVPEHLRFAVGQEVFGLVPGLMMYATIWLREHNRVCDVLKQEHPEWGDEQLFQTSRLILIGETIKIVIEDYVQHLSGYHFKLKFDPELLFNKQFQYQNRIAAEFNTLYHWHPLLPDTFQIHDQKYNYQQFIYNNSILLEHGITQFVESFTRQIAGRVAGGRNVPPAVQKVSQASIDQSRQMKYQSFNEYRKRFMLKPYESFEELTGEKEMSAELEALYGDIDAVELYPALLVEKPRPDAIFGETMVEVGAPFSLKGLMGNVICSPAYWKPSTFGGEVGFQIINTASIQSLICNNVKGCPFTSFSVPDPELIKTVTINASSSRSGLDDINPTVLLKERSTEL
# Rattus norvegicus [3] = test: (§2) Anti-inflammatory activity against carrageenan-induced albino rat paw edema model assessed as inhibition of carrageenan-induced right hind paw edema at 10 umol/kg, sc treated 1 hr prior to carrageenan challenge and measured at 3 hrs after carrageenan treatment by plethysmometer relative to control; format: functional
# Rattus norvegicus [4] = test: Anti-inflammatory activity against carrageenan-induced albino rat paw edema model assessed as inhibition of microsomal PGE2 synthase expression in plasma at 10 umol/kg, sc treated 1 hr prior to carrageenan challenge measured after 2 hrs by microplate reader based monoclonal sandwich ELISA assay; format: functional
# Rattus norvegicus [5] = test: as §2, with “immediately” for “at 3 hrs”; format: functional
# Rattus norvegicus [6] = test: Anti-inflammatory activity against carrageenan-induced albino rat paw edema model assessed as inhibition of carrageenan-induced right hind paw edema at 10 umol/kg, sc treated 1 hr prior to carrageenan challenge and measured at 1 hr after carrageenan treatment by plethysmometer relative to control; format: functional
# Rattus norvegicus [7] = test: Anti-inflammatory activity against carrageenan-induced albino rat paw edema model assessed as inhibition of PGE2 production in plasma at 10 umol/kg, sc treated 1 hr prior to carrageenan challenge measured after 2 hrs by microplate reader based enzyme immunoassay relative to control; format: functional
# Rattus norvegicus [8] = test: Anti-inflammatory activity against carrageenan-induced albino rat paw edema model assessed as inhibition of carrageenan-induced right hind paw edema at 10 umol/kg, sc treated 1 hr prior to carrageenan challenge and measured at 2 hrs after carrageenan treatment by plethysmometer relative to control; format: functional
# [9] = Toxicity in carrageenan-induced albino rat paw edema model assessed as Inhibition of cytosolic PGE2 synthase expression in plasma at 10 umol/kg, sc treated 1 hr prior to carrageenan challenge measured after 2 hrs by microplate reader based monoclonal sandwich ELISA assay; format: organism-based; settings: in vivo
# Rattus norvegicus [10] = test: Anti-inflammatory activity against carrageenan-induced albino rat paw edema model assessed as inhibition of carrageenan-induced right hind paw edema at 10 umol/kg, sc treated 1 hr prior to carrageenan challenge and measured at 6 hrs after carrageenan treatment by plethysmometer relative to control; format: functional
# Rattus norvegicus [11] = test: Ratio of inhibition of microsomal PGE2 synthase expression to inhibition of cytosolic PGE2 synthase expression in plasma of carrageenan-induced albino rat paw edema model at 10 umol/kg, sc treated 1 hr prior to carrageenan challenge measured after 2 hrs by microplate reader based monoclonal sandwich ELISA assay
SMILES,pIC50 [1],Ratio IC50 (Homo sapiens),pIC50 [2],inhibition in vivo at 10 µmol/kg (Rattus norvegicus [3]),inhibition in vivo at 10 µmol/kg (Rattus norvegicus [4]),inhibition (Rattus norvegicus [5]),inhibition in vivo at 10 µmol/kg (Rattus norvegicus [6]),inhibition in vivo at 10 µmol/kg (Rattus norvegicus [7]),inhibition in vivo at 10 µmol/kg (Rattus norvegicus [8]),inhibition (INH) [9],inhibition in vivo at 10 µmol/kg (Rattus norvegicus [10]),fold change (FC) (Rattus norvegicus [11]),inhibition in vivo at 10 µmol/kg (Rattus norvegicus [5]),inhibition (Rattus norvegicus [6])
CC(Cl)C(=O)Nc1c(C#N)cnn1-c1ccc(S(N)(=O)=O)cc1 (configuration not stated),6.30,4.67,6.97,,,,,,,,,,,
N#Cc1cnn(-c2ccc(S(N)(=O)=O)cc2)c1/N=C/c1ccc(F)cc1,6.17,17.5,7.41,36.7%,74.7%,inactive,1.85%,73.9%,7.94%,48.52%,43%,,,
N#Cc1cnn(-c2ccc(S(N)(=O)=O)cc2)c1NC(=O)CCN1CCOCC1,6.06,22.2,7.40,39.5%,74.1%,inactive,2.04%,76.2%,27.5%,44.43%,44%,1.5,,
Cc1ccc(-c2cc(C(F)(F)F)nn2-c2ccc(S(N)(=O)=O)cc2)cc1 [CELECOXIB],,,,35%,80%,,11.1%,69.6%,8.99%,51.11%,42.6%,,6.06%,
CC(=O)Nc1c(C#N)cnn1-c1ccc(S(=O)(=O)NC(C)=O)cc1,6.06,14.3,7.21,35%,80%,,9.26%,65.3%,17.5%,31.08%,44.3%,,0%,
COc1ccc(/C=N/c2c(C#N)cnn2-c2ccc(S(N)(=O)=O)cc2)cc1,6.29,13.1,7.41,33.6%,80.3%,inactive,,64.4%,5.29%,52.43%,42.3%,,,inactive

# The next lines start with results.
pIC50 [1],Ratio IC50 (Homo sapiens),pIC50 [2],SMILES,inhibition in vivo at 10 µmol/kg (Rattus norvegicus [3]),inhibition in vivo at 10 µmol/kg (Rattus norvegicus [4]),inhibition (Rattus norvegicus [5]),inhibition in vivo at 10 µmol/kg (Rattus norvegicus [6]),inhibition in vivo at 10 µmol/kg (Rattus norvegicus [7]),inhibition in vivo at 10 µmol/kg (Rattus norvegicus [8]),inhibition (INH) [9],inhibition in vivo at 10 µmol/kg (Rattus norvegicus [10]),fold change (FC) (Rattus norvegicus [11]),inhibition in vivo at 10 µmol/kg (Rattus norvegicus [5]),inhibition (Rattus norvegicus [6])
6.91,2.12,7.24,N#Cc1cnn(-c2ccc(S(N)(=O)=O)cc2)c1NC(=O)CCCl,,,,,,,,,,,
6.98,5.24,7.70,N#Cc1cnn(-c2ccc(S(N)(=O)=O)cc2)c1NC(=O)CCl,40.1%,80.7%,,16.7%,67.5%,26.5%,31.55%,46%,2.5,13.6%,
6.69,2.46,7.08,N#Cc1cnn(-c2ccc(S(N)(=O)=O)cc2)c1/N=C/c1ccccc1,,,,,,,,,,,
7.19,1.89,7.47,N#Cc1cnn(-c2ccc(S(N)(=O)=O)cc2)c1NC(=O)CN1CCOCC1,,,,,,,,,,,
6.94,1.78,7.19,N#Cc1cnn(-c2ccc(S(N)(=O)=O)cc2)c1/N=C/c1ccc(Br)cc1,,,,,,,,,,,
6.79,3.72,7.36,COc1ccc(/C=N/c2c(C#N)cnn2-c2ccc(S(N)(=O)=O)cc2)cc1OC,,,,,,,,,,,
6.77,0.89,6.72,N#Cc1cnn(-c2ccc(S(N)(=O)=O)cc2)c1/N=C/c1ccc(Cl)cc1,,,,,,,,,,,
6.79,1.31,6.91,CC(C(=O)Nc1c(C#N)cnn1-c1ccc(S(N)(=O)=O)cc1)N1CCOCC1 (configuration not stated),,,,,,,,,,,
7.14,1.3,7.25,N#Cc1cnn(-c2ccc(S(N)(=O)=O)cc2)c1NC(=O)c1ccccc1,,,,,,,,,,,
